Source: patent publication US8377913B2, “Vitamin D receptor activators and methods of making” (AbbVie Inc., priority 2007, dated 2013)

How the values were obtained:
[1] = test system: VDR (VDRE-luciferase-reporter construct); test: VDRE Reporter Gene Assay in HEK cells with stable expression of VDR; format: cell-based; conditions: Homo sapiens, HEK293, 24 hours
Procedure: Compound activity was also assessed by looking at a Vitamin D Response Element (VDRE) reporter gene assay, Human Embryonic Kidney cells (HEK cells) with a stable expression of VDR were cultured in 96-well plates at ˜4×10^5 cells/mL (100 μL/well) in DMEM medium containing 10% fetal calf serum. Cells were transfected with 0.2 μg per well of a VDRE-luciferase-reporter construct (from Y. Li, University of Chicago) and then treated with test agents at indicated concentrations for 24 hours. The luciferase activity was then measured following the manufacturer's instructions (Promega, Madison, Wis.).

Male, C57BL6, mice = test: Normal Mouse Calcemia Model; format: in vivo
Procedure: Male, C57BL6, mice were obtained from Jackson Laboratories. The mice were habituated for four days while maintained on a normal diet (D10001, Research Diets Inc.). Treatment was initiated with vehicle (20% ethanol/30% propylene glycol/50% water, 0.05 mL, s.c.) or test agent administered over a three log dose range. The animals were dosed once daily for 3 days. Twenty-four hours after the last dose, animals were anesthetized with ketamine/xylazine (100/18 mg/kg) and bled by cardiac puncture for measurement of PTH and other end points.
Measurement of PTH and minerals: Calcium (Ca), serum phosphorus (Pi), creatinine and BUN were measured from serum using an Abbott Aeroset® (Abbott Laboratories, Abbott Park, Ill.). Blood ionized calcium (iCa) was determined using the i-STAT® system (Abbott Laboratories, East Windsor, N.J.). Serum PTH was measured using a mouse parathyroid hormone (PTH) EIA kit obtained from ALPCO/Immutopics, Inc. (Windham, N.H.). Selected data is shown is Table 6. The graphs in FIG. 4 give an indication of dose response. Notable is that Example 1 produced an approximately 30% reduction in PTH over at least a three log dose range without a concomitant elevation of serum calcium of greater than 1 mg/dL.
Data analysis: Mean±standard error of the mean was calculated for each group. One way ANOVA followed by a Dunnett's test was used to assess differences between vehicle and drug-treated groups. *p<0.05=significance.

5/6 nephrectomized rats = test: Aortic Calcification in Uremic Rats; format: in vivo, rat; conditions: 5/6 NX rats, at <100 μg/kg, i.p. 3 times per week for 41 Days
Procedure: 5/6 nephrectomized rats: Male Sprague-Dawley, 5/6 NX rats (˜200 g) were obtained from Charles River. The nephrectomy was performed using a standard two-step surgical ablation procedure. Beginning approximately 2 weeks post-nephrectomy, rats were maintained on a hyperphosphatemia-inducing diet (0.9% phosphorus and 0.6% calcium) for the duration of the study to induce secondary hyperparathyroidism (SHPT). After four weeks on the special diet, rats received vehicle (5% ethanol/95% propylene glycol; 0.4 mL/kg; i.p.) or test agent 3 times per week for 41 Days. On Days 0, 13, and 41 blood was collected (24 hours post-dose).
To minimize bias induced by variance in the disease state, 5/6 NX rats were assessed after 4 weeks of high phosphorus diet (prior to treatment) and the following inclusion/exclusion criteria were applied to the rats for study: • Serum creatinine=0.8-2.0 mg/dL (sham controls=0.43±0.01 mg/dL; n=20) • Exclude: serum calcium≦8.5 mg/dL (sham controls=10.05±0.05 mg/dL; n=20) • Exclude: serum phosphorus>12 mg/dL (sham controls=7.09±0.12 mg/dL; n=20) • Exclude: iPTH<400 pg/mL (sham controls=430±33 pg/mL; n=20)
Measurement of PTH and serum mineral levels: Serum PTH was measured using a rat intact PTH ELISA kit (ALPCO/lmmutopics, Inc., Windham, N.H.). Serum calcium, phosphorus, creatinine and BUN concentrations were measured using an Abbott Aeroset® (Abbott, Abbott Park, Ill.). […]

5/6 NX rats = test: Study 1: serum PTH, ionized Ca++, total Ca++ and phosphorus in the 5/6 NX rat model; format: in vivo; conditions: for decrease in PTH: Day 0 vs. Day 13
Procedure: Study 1: The purpose of the study was to compare the effects of Example 1 on serum PTH, ionized Ca++, total Ca++ and phosphorus in the 5/6 NX rat model.
Methods: 5/6 NX rats were fed a normal diet (Teklad 8640; 0.9% Phos. and 1.1% Ca++) for 4 weeks prior to study at 6 weeks uremia, and were maintained on this diet for the duration of the study. 5/6 NX rats were treated with vehicle and 10, 30 or 100 μg/kg of A-Example 1. Rats were dosed i.p. 3×/week for 2 weeks. Blood was collected on Days 0 and 13 for determination of concentrations of PTH, ionized Ca++, total Ca++ and phosphorus.

[2] = over at least a three log dose range
[3] = 5/6 NX rats, 100 μg/kg i.p. 3×/week for 2 weeks

Structure (SMILES): C=C1[C@H](O)CC(=C/C=C2\CCC[C@]3(C)[C@@H]([C@H](C)COC(=O)C(C)(C)C)CC[C@@H]23)C[C@H]1O [Example 1, (2S)-2-[(1R,3R,7E, 17β)-1,3-dihydroxy-2-methylene-9,10-secoestra-5,7-dien-17-yl]propyl pivalate]
- EC50 [1]: 0.4 nM
- concomitant elevation of serum calcium (Male, C57BL6, mice; [2]): ≤ 1 mg/dL
- reduction in PTH (Male, C57BL6, mice; [2]): approximately 30%
- 1 mg/dL Δ total Ca (Male, C57BL6, mice; s.c. once daily for 3 days, dose giving 1 mg/dL change in total Ca): >100 µg/kg
- ED50 (Male, C57BL6, mice; sc, 72 h, s.c. once daily for 3 days, read-out: PTH ED50): 0.0105 mg/kg
- effect on aortic calcification (5/6 nephrectomized rats): did not have an effect
- decrease in PTH (5/6 NX rats; 5/6 NX rats, 30 μg/kg i.p. 3×/week for 2 weeks): 26%
- ionized Ca++ (5/6 NX rats; [3]): elevated
- total Ca++ (5/6 NX rats; [3]): elevated
- decrease in PTH (5/6 NX rats; [3]): 78%
- serum phosphorus levels (5/6 NX rats; 5/6 NX rats, 10, 30 or 100 μg/kg i.p. 3×/week for 2 weeks): did not affect
